The text below walks through data of patent US20120225123A1, “Use of Synergistic Combinations of an Avermectin and an Antineoplastic Compounds for the Treatment of Hematological Malignancies” (UNIVERSITY HEALTH NETWORK, priority 2009, published 2012).

Data set [1] has as its system U937 and TEX leukemia cells; primary AML cells. The data set is described as follows: Reactive oxygen species, Carboxy-H2DCFDA staining, sensitive cells. It counts as cell-based, human.
The test system of data set [2] is panel of 5 leukemia cell lines. Description: Cell growth and viability by MTS assay in a panel of leukemia cell lines. The following applies: 72 hours, read-out: EC50, decreased viability. The class given is cell-based. The method, then:
(§1) Cell growth and viability was assessed by the MTS assay (Promega, Madison, Wis.) according to the manufacturer's instructions and as previously described.^12 Cell death was measured by Annexin V-fluoroscein isothiocyanate (FITC) and Propidium Iodide (PI; Biovision Research Products, Mountain View, Calif.) staining and flow cytometry according to the manufacturer's instructions and as previously described.^13 To identify CD34+ cells, a normal PBSC sample was co-stained with PE-anti-CD34+ (Beckman Coulter, Marseille France), and APC-anti-CD45 (Becton Dickenson, San Jose Calif.).
Having identified IVM in the chemical screens, the effects of IVM on cell growth and viability was tested in a panel of leukemia, cell lines. The effects of ivermectin on cell growth and viability in a panel of 5 leukemia cell lines were tested. Cells were treated with increasing concentrations of ivermectin and 72 hours after incubation, cell growth and viability were assessed by the MTS assay. Ivermectin decreased the viability of the tested leukemia cell lines with an EC50 of approximately 5 μM (FIG. 1B). The loss of viability was detected at 24 hours after treatment and increased in a time dependent manner. Cell death and apoptosis were confirmed by Annexin V and PI staining (FIG. 1C). […] (FIG. 1F).
In general terms: Tetrazolium assays rely on reduction of a dye to a coloured formazan, in cell work by metabolically active cells.

The test system of data set [3] is STAT1 mRNA in U937 and HL60 leukemia cells. Description: Gene expression by Q-RT-PCR, U937 and HL60. The class given is cell-based, human. The method, then:
Gene expression changes were evaluated in OCI AML2, 0937, HL60, DU145 and PPC-1 cells by real-time Q-RT-PCRas described previously^15, 47. The expression level of STAT1A, STAT1B, TRIM22, OAS1 and IFIT3 before and after incubation of leukemia cells with ivermectin was evaluated.

In data set [4] the test system is OCI-AML2 cells. Description: Reactive oxygen species, Carboxy-H2DCFDA staining, OCI-AML2. The class given is cell-based, human. The following applies: increasing concentrations, flow cytometry. The method, then:
Data were analyzed with FlowJo version 8.8 (TreeStar, Ashland, Oreg.).
Background: Flow cytometry measures light scatter and fluorescence of single cells or particles in a stream.

Data set [5] concerns acute myeloid leukemia (AML) patient samples. The data set is described as follows: Cell viability by Annexin V and PI staining, AML patient samples. The class given is cell-based, human. The following applies: 48 hours. The method, then:
Primary human acute myeloid leukemia (AML) samples were isolated from fresh bone marrow and peripheral blood samples of consenting patients. Similarly, primary normal hematopoietic cells were obtained from healthy consenting volunteers donating peripheral blood mononuclear cells
(PBSCs) for stem cell transplantation. The mononuclear cells were isolated from the samples by Ficoll density centrifugation. Primary cells were cultured at 37° C. in IMDM supplemented with 20% FCS and appropriate antibiotics.
as §1
Given the cytotoxicity of IVM toward leukemia cell lines, its cytotoxicity was compared to primary normal hematopoietic cells and acute myeloid leukemia (AML) patient samples (n=4 intermediate risk cytogenetics, n=1 good risk cytogenetics, and n=1 unknown cytogenetics). […]

For data set [6], the system named is OCI-AML2 cells. Description: Cell death, viability and cell cycle in OCI-AML2 cells. The class given is cell-based, human. The method, then: as §1
Cell cycle analysis was performed as described previously.^15 Briefly, cells were harvested, washed with cold PBS, and resuspended in 80% cold ethanol. Cells were then treated with 100 ng/mL DNase-free RNase A (Invitrogen) at 37° C. for 30 min, washed with cold PBS, and resuspended in PBS with 50 μg/mL propidium iodide. DNA content was analyzed by flow cytometry (FACSCalibur; Becton Dickinson). The percentage of cells in each phase of the cell cycle was calculated with FlowJo version 8.8 (TreeStar, Ashland, Oreg.).

For data set [7] the following is noted: cited from earlier work.
The subject of data set [8] is OCI-AML2, K562 and MDAY-D2 leukemia cells in NOD/SCID mice. The data set is described as follows: Mouse models of leukemia, subcutaneous tumors, oral ivermectin. It counts as in vivo. The method, then:
MDAY-D2 murine leukemia cells, and K562 and OCI-AML2 human leukemia cells (2.5×10^5) were injected subcutaneously into both flanks of sub-lethally irradiated (3.5 Gy) NOD/SCID mice (Ontario Cancer
Institute, Toronto, ON). Four (OCI-AML2), five (MDAY-D2), or seven (K562) days after injection, once tumors were palpable, mice were then treated daily for 10 days (K562) or treated with 8 doses over 10 days (OCI-AML2) with IVM (3 mg/kg) by oral gavage in water or vehicle control (n=10 per group). […] Tumor volume (tumor length x width^2×0.5236) was measured three times a week using calipers. Fourteen (MDAY-D2), 15 (OCI-AML2) or 17 (K562) days after injection of cells, mice were sacrificed, tumors excised and the volume and weight of the tumors were measured.
Given the effects of IVM as a potential anti-leukemic agent, IVM was evaluated in mouse models of leukemia. Human leukemia (OCI-AML2 and K562) and murine leukemia (MDAY-D2) cells (MDAY-D2, OCI-AML2 and K562) were injected subcutaneously into the flank of NOD/SCID mice. Four (OCI-AML2), five (MDAY-D2), or seven (K562) days after injection, once tumors were palpable, mice were then treated daily for 10 days (K562) or treated with 8 doses over 10 days (OCI-AML2) with IVM (3 mg/kg) by oral gavage in water or vehicle control (n=10 per group). […] Tumor volume and weight was measured over time.

Data set [9] relates to OCI-AML2, HL60, and KG1a leukemia cell lines. Description: Chemical screen for cytotoxic compounds, MTS assay. The class given is cell-based, human. The following applies: 72 hours, all cell lines in the screen, read-out: EC50, reduced cell viability. As for the experimental part: HL60, KG1a, and OCI-AML2 leukemia cells were seeded into 96-well polystyrene tissue culture plates (Nunc). After seeding, cells were treated with aliquots of the chemical library (=100) at increasing concentrations (3 to 50 μM) with a final DMSO concentration of 0.5%. Seventy two hours after incubation, cell growth and viability was measured by the MTS assay. Liquid handling was performed by a Biomek FX Laboratory Automated Workstation (Beckman Coulter Fullerton, Calif.).
as §1
A small chemical library (n=100) focused on anti-microbials and metabolic regulators with wide therapeutic windows and well understood pharmacokinetics was compiled. […] Seventy two hours after incubation, cell growth and viability was measured by the MTS assay. […]

[10] abbreviates: healthy male volunteers, 14 mg capsule of radiolabelled ivermectin.
[11] abbreviates: onchocerciasis patients, single oral dose of 150 μg/kg.

Some results are limits rather than exact numbers.

Usually EC50 stands for the midpoint of the concentration-response curve. The term half-life denotes the time in which the quantity being followed falls by half. On to ivermectin, for which, in data set [1] (U937 and TEX cells, 2 hours after treatment), the ROS generation entry is reported as “demonstrated increased ROS generation”. Moreover, in [1] (primary AML cells), the ROS generation result is on record as “demonstrated increased ROS generation”. Moreover, the 50% effective concentration (EC50) in data set [2] was ~5 µM. The “STAT1 mRNA” value in data set [3] is recorded as “demonstrated increased STAT1 mRNA”. Moreover, in [4], the ROS production result was “increased ROS production”. For the same substance, in data set [5], the cytotoxicity entry is “cytotoxic to AML patient samples at low micromolar concentrations”. In addition, the cell death result in data set [6] (24 hours of treatment) was “induced cell death”. Moreover, the cell cycle result in data set [6] (times and concentrations that preceded cell death, PI DNA content) is on record as “induced G2 cell cycle arrest”. The “time over which IVM and/or metabolites are excreted in the feces” value in [7] (estimated) is ~12 days. Also, in [7] (setting [10]), the half-life is 11.8 h and the “mean Tmax” value was 6 h. Further, the “administered dose excreted in the urine” value in data set [7] (in vivo) is reported as < 1%. Further, in data set [7] (setting [11]), the “area under the curve over 48 hours” value is 2852 ng·h/mL, the maximum plasma concentration was 52.0 ng/mL and the “time to maximum plasma concentration” value was 5.2 h. Besides, in data set [8] (MDAY-D2 mice, dosage escalated 3 to 6 mg/kg), the tolerability result was “well tolerated”. Further, the “decrease in tumor weight and volume compared to buffer control” value in data set [8] (oral gavage 3 mg/kg (MDAY-D2 escalated to 6 mg/kg), all 3 models, p<0.05) was “up to 70%”. Also, the gross organ toxicity result in data set [8] (oral ivermectin, all 3 models) was “without any gross organ toxicity”. Moreover, the EC50 in data set [9] was < 10 µM.
